Values after ≈ are worked out from the molar mass of the structure shown.
Key:
[1] = target: S. pneumoniae LigA (Streptococcus pneumoniae serotype 4, UniProt Q97QT2); experiment: DNA ligase FRET inhibition assay; assay type: biochemical; settings: FRET detection, ten compound concentrations; read-out: IC50 (μM) against S. pneumoniae LigA
Experimental: (§1) Compounds were tested for inhibition of DNA ligase using a Fluorescence Resonance Energy Transfer (FRET) detection assay as previously described (Chen et al. 2002. Analytical Biochemistry 309: 232-240; Benson et al. 2004. Analytical Biochemistry 324:298-300). Assays were performed in 384-well polystyrene flat-bottom black plates in 30 μl reactions containing 3 μl compound dissolved in dimethylsulfoxide, 20 μl 1.5× Enzyme Working Solution (25% glycerol, 45 mM potassium chloride, 45 mM ammonium sulfate, 15 mM dithiothreitol, 1.5 mM ethylenediaminetetraacetic acid (EDTA), 0.003% Brij 35, 75 mM MOPS pH 7.5, 150 nM bovine serum albumin, 1.5 μM NAD^+, 60 nM DNA substrate, 0.375 nM enzyme in water) and 7 μl 70 mM magnesium chlorine solution (96 mM magnesium chloride, 20% glycerol in water) to initiate the reaction. The DNA substrate is similar to that described in Benson et al. (2004. Analytical Biochemistry 324:298-300). […] Plates were read in a Tecan Ultra plate reader at two separate wavelengths—Read 1: excitation 485, emission 535, Read 2: excitation 485, emission 595. […] Compound potency was based on IC50 measurements determined from reactions performed in the presence of ten different compound concentrations.

[2] = test system: S. pneumoniae; experiment: Bacterial susceptibility testing, microbroth dilution (NCCLS), MIC; assay type: cell-based; settings: Streptococcus pneumoniae; lowest concentration able to reduce growth by 80% or more; read-out: MIC (μg/ml) against S. pneumoniae
Experimental: Compounds were tested for antimicrobial activity by susceptibility testing using microbroth dilution methods recommended by NCCLS. Compounds were dissolved in dimethylsulfoxide and tested in 10 doubling dilutions in the susceptibility assays such that the final dimethylsulfoxide concentration in the assay was 2% (v/v). The organisms used in the assay were grown overnight on appropriate agar media and then suspended in the NCCLS-recommended liquid susceptibility-testing media. The turbidity of each suspension was adjusted to be equal to a 0.5 McFarland standard, a further 1-in-10 dilution was made into the same liquid medium to prepare the final organism suspension, and 100 μL of this suspension was added to each well of a microtiter plate containing compound dissolved in 2 μL of dimethylsulfoxide. Plates were incubated under appropriate conditions of atmosphere and temperature and for times according to NCCLS standard methods prior to being read. The Minimum Inhibitory Concentration (MIC) was determined as the lowest drug concentration able to reduce growth by 80% or more.

[3] = test system: DNA ligase; experiment: DNA ligase FRET inhibition assay, isozyme not specified; assay type: biochemical
Experimental: as §1, with “reaction.” for “reaction. The DNA substrate is similar to that described in Benson et al. (2004. Analytical Biochemistry 324:298-300).”
Solubility is determined under assay conditions using a nephelometer to detect a change in turbidity as the concentration of compound increases. The limit of solubility is defined as the maximum concentration before a detectable increase in turbidity is measured.

S. pneumoniae LigA, sequence (Q97QT2 whole entry): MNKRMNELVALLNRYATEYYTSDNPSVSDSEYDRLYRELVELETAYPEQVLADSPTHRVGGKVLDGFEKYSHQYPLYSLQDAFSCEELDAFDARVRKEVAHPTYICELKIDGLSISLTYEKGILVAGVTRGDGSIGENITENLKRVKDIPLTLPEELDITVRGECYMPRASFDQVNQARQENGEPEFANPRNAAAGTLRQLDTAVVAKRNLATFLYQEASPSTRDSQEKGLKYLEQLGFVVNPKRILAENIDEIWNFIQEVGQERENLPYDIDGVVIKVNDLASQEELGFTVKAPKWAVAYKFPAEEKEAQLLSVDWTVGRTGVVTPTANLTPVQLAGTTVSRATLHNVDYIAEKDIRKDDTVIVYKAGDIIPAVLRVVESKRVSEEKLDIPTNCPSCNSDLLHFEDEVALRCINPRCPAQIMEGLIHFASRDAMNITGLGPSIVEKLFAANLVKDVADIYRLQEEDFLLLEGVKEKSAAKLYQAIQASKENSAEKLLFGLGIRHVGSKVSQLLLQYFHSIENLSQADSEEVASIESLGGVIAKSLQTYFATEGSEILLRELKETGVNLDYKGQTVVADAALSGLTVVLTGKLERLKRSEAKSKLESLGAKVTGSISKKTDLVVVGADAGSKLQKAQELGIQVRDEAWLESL

| IC50 [1] | inhibition of the ligation reaction at the limit of solubility in the assay medium [3] | SMILES | further results |
| --- | --- | --- | --- |
| 1 µM | – | Nc1nc(OC2CCCC2)nc2c1ncn2[C@@H]1OC(CF)(CF)[C@@H](O)[C@H]1O [Example 13, (3S,4R,5R)-5-[6-amino-2-(cyclopentyloxy)-9H-purin-9-yl]-2,2-bis(fluoromethyl)tetrahydrofuran-3,4-diol] | – |
| – | – | Nc1nc(OC2CCCC2)nc2c1ncn2[C@@H]1OC(CO)(CO)[C@@H](O)[C@H]1O [Example 12, (3S,4R,5R)-5-[6-amino-2-(cyclopentyloxy)-9H-purin-9-yl]-2,2-bis(hydroxymethyl)tetrahydrofuran-3,4-diol] | MIC [2]: 16 µg/mL (≈ 42 µM) |
| – | approximately 17% | C=C[C@]1(O)[C@H](O)[C@@H](C)O[C@H]1n1cnc2c(N)nc(OC3CCCC3)nc21 [(2R,3S,4R,5R)-2-(6-amino-2-(cyclopentyloxy)-9H-purin-9-yl)-5-methyl-3-vinyltetrahydrofuran-3,4-diol] | – |
| – | approximately 12% | Nc1nc(OC2CCCC2)nc2c1ncn2C1OCCC1(Cl)Cl (centres unmarked) [2-(cyclopentyloxy)-9-(3,3-dichlorotetrahydrofuran-2-yl)-9H-purin-6-amine] | – |
| 10 µM | – | C[C@H]1O[C@@H](n2c(NCc3ccccc3)nc3c(N)nc(OC4CCCC4)nc32)[C@H](O)[C@@H]1O [Example 2] | – |

Source: patent US20090118220A1, “SUBSTITUTED ADENINES AND THE USES THEREOF” (AstraZeneca AB, priority 2006, published 2009)
